Test system: Rhizoctonia solani
Assay: Cucumber seed treatment test against Rhizoctonia solani (Test Example 1)
Type: in vivo
Conditions: cucumber seeds, acetone solution, seven days after seeding
Source text: An emulsifiable concentrate was obtained by mixing clothianidin and metconazole.
In accordance with Seed Treatment Example 5, cucumber (Sagami Hanjiro) seeds were smeared with the emulsifiable concentrate using a rotary seed treating machine (seed dresser, manufactured by Hans-Ulrich Hege GmbH).
The obtained treated seeds were allowed to stand overnight and sown on the soil with which each plastic pot was filled and then covered with the soil mixed with Rhizoctonia solani cultured in a bran culture medium. While sprinkling, culture was conducted in a greenhouse. Seven days after seeding, the number of seeds not showing epicotyl emergence was checked and severity was calculated using Equation 1 shown below. Based on the severity, the control value was calculated using Equation 2.
For comparison, acetone solutions each having a predetermined concentration of clothianidin or metconazole were prepared by mixing each of clothianidin and metconazole with acetone, and the same test was carried out. Severity=(number of seeds not showing epicotyl emergence)×100/(total number of sown seeds) Equation 1 Control value=100×(A−B)/A Equation 2 • A: Severity of plants of the chemical non-treated district • B: Severity of plants of the chemical treated district

Row | SMILES | Control value (clothianidin 200 g, metconazole 0 g per 100 kg of seeds) | Control value (clothianidin 0 g, metconazole 1 g per 100 kg of seeds)
1 | CN/C(=N\[N+](=O)[O-])NCc1cnc(Cl)s1 [Clothianidin, clothianidin] | 4 | 
2 | CC1(C)CCC(Cc2ccc(Cl)cc2)C1(O)Cn1cncn1 (centres unmarked) [Metconazole, metconazole] |  | 39
